Assay results from US8440633B2, “Anthelmintic combination” (AH USA 42 LLC, priority 2007, dated 2013).

Columns and labels:
Type in all cases: in vivo
[1] = tested on: Teladorsagia circumcincta; test: Total worm count, resistant strains in sheep (Example 2); details: for % efficacy (arithmetic mean): doses as the 4th table, Day 15, NEG = negative efficacy, mean count higher than control
Experimental: (§1) Sheep were artificially infected with L3 larvae of Teladorsagia (Ostertagia) circumcincta and Trichostrongylus colubriformis and efficacy was measured by total worm counts in the treatment group compared to the control group following administration of treatment.
(§2) All study animals were necropsied on Day 15 after treatment. Abomasa and small intestines were collected for worm recovery and total worm count estimations.

Teladorsagia trifurcata = test: as above; details: for % efficacy (arithmetic mean): doses as the 4th table, Day 15, NEG = negative efficacy, mean count higher than control
Experimental: as §1, §2

[2] = tested on: Trichostrongylus colubriformis; test: as above; details: for % efficacy (arithmetic mean): doses as the 4th table, Day 15
Experimental: as §1, §2

Haemonchus contortus = test: Total worm count, resistant strains in sheep (Example 3); details: for % efficacy (arithmetic mean): doses as the 6th table, Day 15
Experimental: (§3) Sheep were artificially infected with infective L3 larvae in a mixed culture containing Haemonchus contortus, Teladorsagia spp and Trichostrongylus spp, and efficacy was measured by total worm counts in the treatment group compared to the control group following administration of treatment. The animals were treated as outlined below with the commercially available reference products included to confirm the resistance profile of the above parasites.
as §2

Teladorsagia spp (total) = test: as above; details: for % efficacy (arithmetic mean): doses as the 6th table, Day 15, NEG = negative efficacy
Experimental: as §3, §2

Trich. colubriformis = test: as above; details: for % efficacy (arithmetic mean): doses as the 6th table, Day 15
Experimental: as §3, §2

[3] = Example 2, resistant Teladorsagia circumcincta
[4] = Example 2, Teladorsagia trifurcata
[5] = Example 2, resistant Trichostrongylus colubriformis
[6] = Example 3, resistant Haemonchus contortus
[7] = Example 3, resistant Teladorsagia spp (total)
[8] = Example 3, resistant Trich. colubriformis
[9] = Example 2, resistant Teladorsagia circumcincta, per os once Day 0 (2-DOPH 2 + abamectin 0.2; albendazole 3.8; levamisole 8; ivermectin 0.2 mg/kg), necropsy Day 15
[10] = Example 2, Teladorsagia trifurcata, per os once Day 0 (2-DOPH 2 + abamectin 0.2; albendazole 3.8; levamisole 8; ivermectin 0.2 mg/kg), necropsy Day 15
[11] = Example 2, resistant Trichostrongylus colubriformis, per os once Day 0 (2-DOPH 2 + abamectin 0.2; albendazole 3.8; levamisole 8; ivermectin 0.2 mg/kg), necropsy Day 15
[12] = Example 3, resistant Haemonchus contortus, per os once Day 0 (2-DOPH 2 + abamectin 0.2; albendazole 3.8; levamisole 8; ivermectin 0.2 mg/kg), necropsy Day 15
[13] = Example 3, resistant Teladorsagia spp (total), per os once Day 0 (2-DOPH 2 + abamectin 0.2; albendazole 3.8; levamisole 8; ivermectin 0.2 mg/kg), necropsy Day 15
[14] = Example 3, resistant Trich. colubriformis, per os once Day 0 (2-DOPH 2 + abamectin 0.2; albendazole 3.8; levamisole 8; ivermectin 0.2 mg/kg), necropsy Day 15

## CCCSc1ccc2nc(NC(=O)OC)[nH]c2c1 [Albendazole]
[1]; [3]
  % efficacy (arithmetic mean): NEG^
[1]; in vivo
  Arithmetic Mean (total worm count): 2184.4
  Prevalence (total worm count): 10/10
  Range (total worm count): 80-3708
Teladorsagia trifurcata; [4]
  % efficacy (arithmetic mean): NEG^
Teladorsagia trifurcata; in vivo
  Arithmetic Mean (total worm count): 281.6
  Prevalence (total worm count): 7/10
  Range (total worm count): 0-712
[2]; [5]
  % efficacy (arithmetic mean): 56.44%
[2]; in vivo
  Arithmetic Mean (total worm count): 1812.0
  Prevalence (total worm count): 10/10
  Range (total worm count): 1320-2660
Haemonchus contortus; [6]
  % efficacy (arithmetic mean): 80.57%
Haemonchus contortus; in vivo
  Arithmetic Mean (total worm count): 164.0
  Prevalence (total worm count): 8/10
  Range (total worm count): 0-320
Teladorsagia spp (total); [7]
  % efficacy (arithmetic mean): 58.16%
Teladorsagia spp (total); in vivo
  Arithmetic Mean (total worm count): 590.0
  Prevalence (total worm count): 10/10
  Range (total worm count): 160-1200
Trich. colubriformis; [8]
  % efficacy (arithmetic mean): 25.00%
Trich. colubriformis; in vivo
  Arithmetic Mean (total worm count): 3828.0
  Prevalence (total worm count): 10/10
  Range (total worm count): 2600-5160

## c1ccc([C@H]2CN3CCSC3=N2)cc1 [Levamisole]
[1]; [3]
  % efficacy (arithmetic mean): 82.67%
[1]; [9]
  Arithmetic Mean (total worm count): 292.8
  Prevalence (total worm count): 7/9
  Range (total worm count): 0-1020
Teladorsagia trifurcata; [4]
  % efficacy (arithmetic mean): 84.08%
Teladorsagia trifurcata; [10]
  Arithmetic Mean (total worm count): 36.7
  Prevalence (total worm count): 4/9
  Range (total worm count): 0-180
[2]; [5]
  % efficacy (arithmetic mean): 84.31%
[2]; [11]
  Arithmetic Mean (total worm count): 652.6
  Prevalence (total worm count): 9/9
  Range (total worm count): 300-1500
Haemonchus contortus; [6]
  % efficacy (arithmetic mean): 99.76%
Haemonchus contortus; [12]
  Arithmetic Mean (total worm count): 2.0
  Prevalence (total worm count): 1/10
  Range (total worm count): 0-20
Teladorsagia spp (total); [7]
  % efficacy (arithmetic mean): 96.31%
Teladorsagia spp (total); [13]
  Arithmetic Mean (total worm count): 52.0
  Prevalence (total worm count): 8/10
  Range (total worm count): 0-160
Trich. colubriformis; [8]
  % efficacy (arithmetic mean): 15.34%
Trich. colubriformis; [14]
  Arithmetic Mean (total worm count): 4320.7
  Prevalence (total worm count): 10/10
  Range (total worm count): 2120-5800

## Ivermectin
[1]; [3]
  % efficacy (arithmetic mean): NEG^
[1]; Example 2, resistant Teladorsagia circumcincta, listed as ivermectin
  % efficacy (arithmetic mean): zero
[1]; in vivo
  Arithmetic Mean (total worm count): 2093.2
  Prevalence (total worm count): 10/10
  Range (total worm count): 680-3600
Teladorsagia trifurcata; [4]
  % efficacy (arithmetic mean): 15.49%
Teladorsagia trifurcata; in vivo
  Arithmetic Mean (total worm count): 194.8
  Prevalence (total worm count): 7/10
  Range (total worm count): 0-459
[2]; [5]
  % efficacy (arithmetic mean): 55.29%
[2]; in vivo
  Arithmetic Mean (total worm count): 1860.0
  Prevalence (total worm count): 10/10
  Range (total worm count): 400-4060
Haemonchus contortus; [6]
  % efficacy (arithmetic mean): 47.63%
Haemonchus contortus; in vivo
  Arithmetic Mean (total worm count): 442.0
  Prevalence (total worm count): 8/10
  Range (total worm count): 0-940
Teladorsagia spp (total); [7]
  % efficacy (arithmetic mean): NEG
Teladorsagia spp (total); in vivo
  Arithmetic Mean (total worm count): 1680.0
  Prevalence (total worm count): 10/10
  Range (total worm count): 280-3800
Trich. colubriformis; [8]
  % efficacy (arithmetic mean): 11.63%
Trich. colubriformis; in vivo
  Arithmetic Mean (total worm count): 4510.0
  Prevalence (total worm count): 10/10
  Range (total worm count): 3140-5920
